This note sets out measurements from US5424309A, “N-substituted acylamino acid compounds, process for their production and their use” (Banyu Pharmaceutical Co., Ltd., priority 1988, dated 1995).

The target of the assay is T1, human plasma renin (Homo sapiens, UniProt P00797).
T1 construct: from tissue; host or cells: human plasma
T1 sequence (P00797 67-406): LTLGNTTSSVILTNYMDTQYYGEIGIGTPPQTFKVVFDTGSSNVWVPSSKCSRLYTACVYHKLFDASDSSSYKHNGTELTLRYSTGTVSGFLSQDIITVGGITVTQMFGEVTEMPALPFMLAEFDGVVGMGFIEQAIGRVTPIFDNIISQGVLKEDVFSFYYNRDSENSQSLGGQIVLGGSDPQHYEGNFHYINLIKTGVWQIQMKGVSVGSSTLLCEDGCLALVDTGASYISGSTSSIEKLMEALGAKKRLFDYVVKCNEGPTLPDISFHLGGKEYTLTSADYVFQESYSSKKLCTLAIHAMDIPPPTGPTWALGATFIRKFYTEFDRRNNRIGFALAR
Description: Renin inhibiting activities (human plasma, angiotensin I by radio immunoassay). It is filed as biochemical. Particulars: pH7.4, 37° C., one hour, read-out: IC50 (50 % inhibition concentrations), renin inhibiting activity. How it is done:
To 156 μl of a 0.2M sodium phosphate buffer solution (pH7.4), 40 μl of a solution mixture of 34 mM 8-hydroxyquinoline and 100 mM disodium ethylenediamine tetraacetate, 4 μl of dimethyl sulfoxide or a dimethyl sulfoxide solution of test compound and 200 μl of human plasma were added and reacted at 37° C. for one hour. Then, pepstatin was added thereto to terminate the reaction, and the amount of the resulting angiotension I was measured by radio immunoassay whereby the inhibiting activity was determined.

Regarding `CC(=O)OCCS(=O)(=O)C[C@@H](Cc1cccc2ccccc12)C(=O)N[C@@H](Cc1c[nH]cn1)C(=O)N[C@@H](CC1CCCCC1)[C@@H](O)[C@@H](O)CN1CCOCC1` [Example 30], the IC50 is 1.9 nM.
Consider `CCCC[C@H](NC(=O)[C@H](Cc1cccc2ccccc12)CS(=O)(=O)CC(O)COC(=O)CC)C(=O)N[C@@H](CC1CCCCC1)[C@@H](O)[C@@H](O)CN1CCOCC1` (mixture of isomers) [Example 12, (2S,3R,4S)-4-{L-N-[(2S)-3-[(2RS)-3-propionyloxy-2-hydroxypropyl]sulfonyl-2-(1-naphthylmethyl)propionyl]norleucyl}amino-5-cyclohexyl-1-morpholino-2,3-pentanediol], for which the IC50 came out at 4.3 nM.
In the case of `CCCC[C@H](NC(=O)[C@H](Cc1cccc2ccccc12)CS(=O)(=O)CC(COC(=O)CC)OC(=O)CC)C(=O)N[C@@H](CC1CCCCC1)[C@@H](O)[C@@H](O)CN1CCOCC1` (mixture of isomers) [Example 8, (2S,3R,4S)-4-{L-N-[(2S)-3-[(2RS)-2,3-dipropionyloxypropyl]sulfonyl,-2-(1-naphthylmethyl)propionyl]norleucyl}amino-5-cyclohexyl-1-morpholino-2,3-pentanediol], the IC50 came to 3.3 nM.
In the case of `CCCC[C@H](NC(=O)[C@H](Cc1cccc2ccccc12)CS(=O)(=O)C1CCCC1OC(C)=O)C(=O)N[C@@H](CC1CCCCC1)[C@@H](O)[C@@H](O)CN1CCOCC1` (stereo partly drawn) [Example 35, (2S,3R,4S)-4-{L-N-[(2S)-3-(2-acetoxycyclopentyl)sulfonyl-2-(1-naphthylmethyl)propionyl]norleucyl}amino-5-cyclohexyl-1-morpholino-2,3-pentanediol], the IC50 is 3.1 nM.
Take `CCCC[C@H](NC(=O)[C@H](Cc1cccc2ccccc12)C[S+]([O-])CC(COC(C)=O)OC(C)=O)C(=O)N[C@@H](CC1CCCCC1)[C@@H](O)[C@@H](O)CN1CCOCC1` (mixture of isomers) [Example 6 (having a high Rf value), (2S,3R,4S)-4-{L-N-[(2S)-3-[(2RS)-2,3-diacetoxypropyl]sulfinyl-2-(1-naphthylmethyl)propionyl]norleucyl}amino-5-cyclohexyl-1-morpholino-2,3-pentanediol]: the IC50 was 6 nM.
With `CCCC[C@H](NC(=O)[C@H](Cc1cccc2ccccc12)CS(=O)(=O)CC(COC(C)=O)(OCC)OCC)C(=O)N[C@@H](CC1CCCCC1)[C@@H](O)[C@@H](O)CN1CCOCC1` [Example 48, (2S,3R,4S)-4-{L-N-[(2S)-3-(3-acetoxy-2,2-diethoxypropyl)sulfonyl-2-(1-naphthylmethyl)propionyl]norleucyl}amino-5-cyclohexyl-1-morpholino-2,3-pentanediol], the IC50 was determined as 3.9 nM.
For `CCCC[C@H](NC(=O)[C@H](Cc1cccc2ccccc12)CS(=O)(=O)CC(O)COC(=O)C(C)(C)C)C(=O)N[C@@H](CC1CCCCC1)[C@@H](O)[C@@H](O)CN1CCOCC1` (mixture of isomers) [Example 2, (2S,3R,4S)-4-{L-N-[(2S)-3-[(2RS)-3-pivaloyloxy-2-hydroxypropyl]sulfonyl-2-(1-naphthylmethyl)propionyl]norleucyl}amino-5-cyclohexyl-1-morpholino-2,3-pentanediol], the IC50 came out at 7.2 nM.
Consider `CCCC[C@H](NC(=O)[C@H](Cc1cccc2ccccc12)CS(=O)(=O)CC(COC(C)=O)OCC)C(=O)N[C@@H](CC1CCCCC1)[C@@H](O)[C@@H](O)CN1CCOCC1` (mixture of isomers) [Example 43, (2S,3R,4S)-4-{L-N-[(2S)-3-[(2RS)-3-acetoxy-2-ethoxypropyl]sulfonyl-2-(1-naphthylmethyl)propionyl]norleucyl}amino-5-cyclohexyl-1-morpholino-2,3-pentanediol], for which the IC50 is 2.4 nM.
Regarding `CCCC[C@H](NC(=O)[C@H](Cc1cccc2ccccc12)CS(=O)(=O)C1CCC(OC(C)=O)C1)C(=O)N[C@@H](CC1CCCCC1)[C@@H](O)[C@@H](O)CN1CCOCC1` (single isomer, unassigned) [Example 33 (having a low Rf value)], the IC50 worked out at 1.1 nM.
On to `CC(=O)OCC(CS(=O)(=O)C[C@@H](Cc1cccc2ccccc12)C(=O)N[C@@H](Cc1c[nH]cn1)C(=O)N[C@@H](CC1CCCCC1)[C@@H](O)[C@@H](O)CN1CCOCC1)OC(C)=O` (stereo partly shown) [Example 23], for which the IC50 stood at 4.8 nM.
`CCCC[C@H](NC(=O)[C@@H](CSCC(COC(C)=O)OC)Cc1cccc2ccccc12)C(=O)N[C@@H](CC1CCCCC1)[C@@H](O)[C@@H](O)CN1CCOCC1` (mixture of isomers) [Example 27, (2S,3R,4S)-4-{L-N-[(2S)-3-[(2RS)-3-acetoxy-2-methoxypropyl]thio-2-(1-naphthylmethyl)propionyl]norleucyl}amino-5-cyclohexyl-1-morpholino-2,3-pentanediol]: the IC50 amounted to 2.2 nM.
For the compound `CCCC[C@H](NC(=O)[C@H](Cc1cccc2ccccc12)CS(=O)(=O)CC(COC(C)=O)OC)C(=O)N[C@@H](CC1CCCCC1)[C@@H](O)[C@@H](O)CN1CCOCC1` (mixture of isomers) [Example 29, (2S,3R,4S)-4-{L-N-[(2S)-3-[(2RS)-3-acetoxy-2-methoxypropyl]sulfonyl-2-(1-naphthylmethyl)propionyl]norleucyl}amino-5-cyclohexyl-1-morpholino-2,3-pentanediol], the IC50 amounted to 0.76 nM.
For `CCCC[C@H](NC(=O)[C@H](Cc1ccccc1)CS(=O)(=O)CC(COC(=O)CC)OC(=O)CC)C(=O)N[C@@H](CC1CCCCC1)[C@@H](O)[C@@H](O)CN1CCOCC1` (mixture of isomers) [Example 17, (2S,3R,4S)-4-{L-N-[(2S)-3-[(2RS)-2,3-dipropionyloxypropyl]sulfonyl-2-benzylpropionyl]norleucyl}amino-5-cyclohexyl-1-morpholino-2,3-pentanediol] the value was 8.3 nM; for `CCCC[C@H](NC(=O)[C@H](Cc1cccc2ccccc12)CS(=O)(=O)CC(COC(C)=O)=NOC)C(=O)N[C@@H](CC1CCCCC1)[C@@H](O)[C@@H](O)CN1CCOCC1` [Example 41, (2S,3R,4S)-4-{L-N-[(2S)-3-(3-acetoxy-2-methoxyiminopropyl)sulfonyl-2-(1-naphthylmethyl)propionyl]norleucyl}amino-5-cyclohexyl-1-morpholino-2,3-pentanediol], 0.79 nM; for `CCCC[C@H](NC(=O)[C@H](Cc1cccc2ccccc12)C[S+]([O-])c1ccc(OC(C)=O)cc1)C(=O)N[C@@H](CC1CCCCC1)[C@@H](O)[C@@H](O)CN1CCOCC1` (single isomer, unassigned) [Example 20 (having a low Rf value)], 4 nM.
For `CCCC[C@H](NC(=O)[C@H](Cc1cccc2ccccc12)CS(=O)(=O)CC(COC(C)=O)OC)C(=O)N[C@@H](CC1CCCCC1)[C@@H](O)[C@@H](O)CN1CCOCC1` (single isomer, unassigned) [Example 39] the value was 1.3 nM; for `CCCC[C@H](NC(=O)[C@H](Cc1cccc2ccccc12)CS(=O)(=O)CC(COC(=O)CC)OC(C)=O)C(=O)N[C@@H](CC1CCCCC1)[C@@H](O)[C@@H](O)CN1CCOCC1` (mixture of isomers) [Example 13, (2S,3R,4S)-4-{L-N-[(2S)-3-[(2RS)-2-acetoxy-3-propionyloxypropyl]sulfonyl-2-(1-naphthylmethyl)propionyl]norleucyl}amino-5-cyclohexyl-1-morpholino-2,3-pentanediol], 2 nM.
Consider `COC(COC(C)=O)CS(=O)(=O)C[C@@H](Cc1cccc2ccccc12)C(=O)N[C@@H](Cc1cscn1)C(=O)N[C@@H](CC1CCCCC1)[C@@H](O)[C@@H](O)CN1CCOCC1` (stereo partly drawn) [Example 44, (2S,3R,4S)-4-{L,N-[(2S)-3-[(2RS)-3-acetoxy-2-methoxypropyl]sulfonyl-2-(1-naphthylmethyl)propionyl]-(4-thiazolyl)alanyl}amino-5-cyclohexyl-1-morpholino-2,3-pentanediol], for which the IC50 is 1.8 nM.
For `CCCC[C@H](NC(=O)[C@H](Cc1cccc2ccccc12)CS(=O)(=O)C1C(OC(C)=O)CCC1OC(C)=O)C(=O)N[C@@H](CC1CCCCC1)[C@@H](O)[C@@H](O)CN1CCOCC1` (stereo partly drawn) [Example 37, (2S,3R,4S)-4-{L-N-[(2S)-3-(2,5-diacetoxycyclopentyl)sulfonyl-2-(1-naphthylmethyl)propionyl]norleucyl}amino-5-cyclohexyl-1-morpholino-2,3-pentanediol] the value was 2.9 nM; for `CCCC[C@H](NC(=O)[C@H](Cc1cccc2ccccc12)CS(=O)(=O)CC(COC(=O)CC)OC)C(=O)N[C@@H](CC1CCCCC1)[C@@H](O)[C@@H](O)CN1CCOCC1` (mixture of isomers) [Example 14, (2S,3R,4S)-4-{L-N-[(2S)-3-[(2RS)-2-methoxy-3-propionyloxypropyl]sulfonyl-2-(1-naphthylmethyl)propionyl]norleucyl}amino-5-cyclohexyl-1-morpholino-2,3-pentanediol], 2 nM.
Then `CCCC[C@H](NC(=O)[C@@H](CSc1ccc(OC(C)=O)cc1)Cc1cccc2ccccc12)C(=O)N[C@@H](CC1CCCCC1)[C@@H](O)[C@@H](O)CN1CCOCC1` [Example 18, (2S,3R,4S)-4-{L-N-[(2S)-3-(4-acetoxyphenylthio)-2-(1-naphthylmethyl)propionyl]norleucyl}amino-5-cyclohexyl-1-morpholino-2,3-pentanediol], with 9.2 nM.
With `CCCC[C@H](NC(=O)[C@H](Cc1cccc2ccccc12)CS(=O)(=O)CC(COC(C)=O)OC)C(=O)N[C@@H](CC1CCCCC1)[C@@H](O)[C@@H](O)CN1CCOCC1` (single isomer, unassigned) [Example 40], the IC50 was determined as 1 nM.
